Assay results taken from patent publication US6867299B2, “Oxamide IMPDH inhibitors” (Hoffmann-La Roche Inc., priority 2000, dated 2005).
Structures can show the parent of a compound that is named as a salt.

Biological target: IMPDH (human type II) (Homo sapiens, UniProt P12268)
Test: IMPDH inhibitor assay, spectrophotometric (NADH formation at 340 nm)
Type: biochemical
Conditions: 37° C., pH8.0, 2.5% DMSO, 10 concentrations of inhibitor
Experimental: IMPDH activity can be assayed using an adaptation of the method reported by Carr [S. Carr et al., J. Biol. Chem. 268, p.27286 (1993)], the disclosure of which is herein incorporated by reference. IMPDH activity was measured spectrophotometrically, by monitoring the increase in absorbance at 340 nm due to the formation of NADH (ε340 is 6220 M−1 cm−1) from the reduction of NAD. The IMPDH reaction mixture contained 0.1M Tris pH8.0, 0.1M KCl, 1 mM DTT, 3 mM EDTA, […]. The reaction was initiated by the addition of IMPDH (human type II) to a final concentration in the assay of between 1 nM and 5 nM with respect to the IMPDH tetramer. The initial rate is measured by following the linear increase in absorbance at 340 nm at 37° C. for 45 minutes. The reading was conducted using a Spectromax 190 (Molecular Devices) spectrophotometer in a 96 well plate format with a final reaction volume of 200 μl.
For inhibitor assay analysis, the compound is dissolved in DMSO to a final concentration of 10 mM and added to the initial reaction mixture as 5 μl to give final DMSO concentration of 2.5%. The enzyme reaction is initiated by the addition of IMPDH and the initial rates measured as above. IC50 determinations are made by measuring the initial rates in the presence of 10 concentrations of inhibitor and fitting the data using the 4 parameter curve fit from the Softmax pro software (Molecular Devices).

Row | SMILES | IC50
1 | COc1cc(NC(=O)C(=O)Nc2cccc(CNC(=O)OC(C)C)c2)ccc1-c1cnco1 [Isopropyl [3-[[[3-methoxy-4-(5-oxazolyl)anilino]oxalyl]amino]benzyl]carbamate] | 0.033 µM
2 | COC(=O)NCc1cccc(NC(=O)C(=O)Nc2ccc(-c3cnco3)c(OC)c2)c1 [Methyl [3-[[[3-methoxy-4-(5-oxazolyl)anilino]oxalyl]amino]benzyl] carbamate] | 0.121 µM
3 | COc1cc(NC(=O)C(=O)Nc2cccc(CNC(=O)c3ccccc3)c2)ccc1-c1cnco1 [N-[3-(Benzamidomethyl)phenyl]-N′-[3-methoxy-4-(5-oxazolyl)phenyl]oxalamide] | 0.013 µM
4 | COc1cc(NC(=O)C(=O)Nc2cccnc2)ccc1-c1cnco1 [N-[3-Methoxy-4-(5-oxazolyl)phenyl]-N′-(3-pyridyl)oxalamide] | 0.277 µM
5 | COc1cc(NC(=O)C(=O)Nc2cccc(CC(=O)Nc3ccccc3)c2)ccc1-c1cnco1 [N-[3-Methoxy-4-(5-oxazolyl)phenyl]-N′-[3-[(phenylcarbamoyl)methyl]phenyl]oxalamide] | 0.035 µM
6 | COc1cc(NC(=O)C(=O)Nc2cccc(CNS(=O)(=O)c3ccccc3)c2)ccc1-c1cnco1 [N-[3-[(Benzenesulfonamido)methyl]phenyl]-N′-[3-methoxy-4-(5-oxazolyl)phenyl]oxalamide] | 0.125 µM
7 | CC(C)(C)NC(=O)C(=O)Nc1ccc(-c2cnco2)c(Cl)c1 [N-tert-Butyl-N′-[3-chloro-4-(5-oxazolyl)phenyl]oxalamide] | 0.169 µM
8 | COc1cc(NC(=O)C(=O)NC(C)(C)C)ccc1-c1cocn1 [N-tert-Butyl-N′-[3-methoxy-4-(4-oxazolyl)phenyl]oxalamide] | 0.46 µM
9 | COc1cc(NC(=O)C(=O)Nc2cccc(CNC(=O)Oc3ccccc3)c2)ccc1-c1cnco1 [Phenyl [3-[[[4-(5-oxazolyl)anilino]oxalyl]amino]benzyl]carbamate] | 0.011 µM
10 | COc1cc(NC(=O)C(=O)Nc2cccc(CNC(=O)O[C@H]3CCOC3)c2)ccc1-c1cnco1 [[3-[[[3-Methoxy-4-(5-oxazolyl)anilino]oxalyl]amino]benzyl]carbamic acid tetrahydro-3(S)-furyl ester] | 0.044 µM
11 | COc1cc(NC(=O)C(=O)NC(C)(C)CNC(=O)OC(C)(C)C)ccc1-c1cnco1 [tert-Butyl [2-[[[3-methoxy-4-(5-oxazolyl)anilino]oxalyl]amino]-2-methylpropyl]carbamate] | 0.075 µM

Other lines, results leading:

Row | IC50 | SMILES
12 | 0.015 µM | COc1cc(NC(=O)C(=O)NC(C)(C)Cc2ccccc2)ccc1-c1cnco1 [N-(1,1-Dimethyl-2-phenylethyl)-N′-[3-methoxy-4-(5-oxazolyl)phenyl]oxalamide]
13 | 0.048 µM | C#CC(C)(C)NC(=O)C(=O)Nc1ccc(-c2cnco2)c(OC)c1 [N-(1,1-Dimethylpropargyl)-N′-[3-methoxy-4-(5-oxazolyl)phenyl]oxalamide]
14 | 0.031 µM | CCC(C)(C)NC(=O)C(=O)Nc1ccc(-c2cnco2)c(OC)c1 [N-(1,1-Dimethylpropyl)-N′-[3-methoxy-4-(5-oxazolyl)phenyl]oxalamide]
15 | 0.097 µM | COc1cc(NC(=O)C(=O)NC(C)(C)CN)ccc1-c1cnco1 [N-(2-Amino-1,1-dimethylethyl)-N′-[3-methoxy-4-(5-oxazolyl)kphenyl]oxalamide trifluoroacetate (1:1)]
16 | 0.17 µM | COc1cc(NC(=O)C(=O)NC(C)(C)CN(C)C)ccc1-c1cnco1 [N-(2-Dimethylamino-1,1-dimethylethyl)-N′-[3-methoxy-4-(5-oxazolyl)phenyl]oxalamide hydrochloride (1:1)]
17 | 0.072 µM | COc1cc(NC(=O)C(=O)NC(C)(C)CO)ccc1-c1cnco1 [N-(2-Hydroxy-1,1-dimethylethyl)-N′-[3-methoxy-4-(5-oxazolyl)phenyl]oxalamide]
18 | 0.233 µM | COc1cc(NC(=O)C(=O)Nc2cccc(CN)c2)ccc1-c1cnco1 [N-[3-(Aminomethyl)phenyl]-N′-[3-methoxy-4-(5-oxazolyl)phenyl]oxalamide trifluoroacetate (1:1)]
19 | 0.034 µM | COc1cc(NC(=O)C(=O)NC(C)(C)CC(C)(C)C)ccc1-c1cnco1 [N-[3-Methoxy-4-(5-oxazolyl)phenyl]-N′-(1,1,3,3-tetramethyl-butyl)oxalamide]
20 | 0.03 µM | COc1cc(NC(=O)C(=O)NC(C)(C)c2ccccc2)ccc1-c1cnco1 [N-[3-Methoxy-4-(5-oxazolyl)phenyl]-N′-(1-methyl-1-phenylethyl)oxalamide]
21 | 0.01 µM | COc1cc(NC(=O)C(=O)NC(C)(C)Cc2ccc([N+](=O)[O-])cc2)ccc1-c1cnco1 [N-[3-Methoxy-4-(5-oxazolyl)phenyl]-N′-[1,1-dimethyl-2-(4-nitrophenyl)ethyl]oxalamide]
22 | 0.199 µM | CNC(=O)C(C)(C)NC(=O)C(=O)Nc1ccc(-c2cnco2)c(OC)c1 [N-[3-Methoxy-4-(5-oxazolyl)phenyl]-N′-[1-methyl-1-(methylcarbamoyl)ethyl]oxalamide]
23 | 0.037 µM | COc1cc(NC(=O)C(=O)NC(C)(C)C)ccc1-c1cnco1 [N-tert-Butyl-N′-[3-methoxy-4-(5-oxazolyl)phenyl]oxalamide]
24 | 0.036 µM | COc1cc(NC(=O)C(=O)Nc2cccc(CNC(=O)OC(C)(C)C)c2)ccc1-c1cnco1 [tert-Butyl [3-[[[3-methoxy-4-(5-oxazolyl)anilino]oxalyl]amino]benzyl]carbamate]
